Assay [1] relates to hPR-A. Kind of assay: PR-A transcription assay (MTV-LUC reporter, SK-N-MC cells). Format: cell-based, human. The following applies: 10^-7 mol/l test compound relative to R5020 10^-7 mol/l, 24 hours, 0.1 µM. On the procedure:
(§1) The method for screening for PR isoform-specific progestins according to the present invention is carried out with first and second SK-N-MC cells stably transfected with a plasmid expressing the hPR-A (first cells) or the hPR-B (second cells) and the LUC reporter gene linked to the hormonally responsive MTV promoter.
(§2) For the transcription assay, the cells are seeded onto 96-well dishes (2x 10^4 cells/dish) and cultured in a medium as described above, with the exception that the FCS is replaced by a 3 % charcoal stripped FCS. 48 hours later, cells are contacted with prediluted test compounds. For determination of agonistic activity, cells are cultured in the presence of increasing concentrations (10^-6 to 10^-11 mol/l) of test progestins. As a positive control for reporter gene induction cells are treated with 10^-6 to 10^-11 mol/l R5020 (promegestone). As a negative control for reporter gene induction, cells are cultured in 1 % ethanol.
(§3) Evaluation of the response gives the efficacy [%], and evaluation of the EC50 values gives the potency [nM]. Calculation of the agonistic activity is conducted as follows:
(§4) The LUC activity [%] for the measured data points is calculated as follows: relative LUC activity [%] = 100 x((response 10)^-6 (to 10)^-11 mol/l test compound - CO)/(CI - CO) [formula] wherein CI = 100 % stimulation (R5020, 10^-7 mol/l) and CO = 0 % stimulation (ethanol, 1 %).
(§5) Thus, the efficacy [%] is calculated according to: efficacy [%] = 100 x((response 10)^-7 mol/l test compound - CO)/(CI - CO) [formula]
(§6) The potency [nM], i.e. the EC50, is determined graphically.

Assay [2] has as its system hPR-B. Kind of assay: PR-B transcription assay (MTV-LUC reporter, SK-N-MC cells). Conditions: 10^-7 mol/l test compound relative to R5020 10^-7 mol/l, 24 hours, 0.1 µM. Format: cell-based, human. On the procedure:
as §1
The cells are cultured in Minimum Essential Medium with Earl's Salts (S-MEM, without L-glutamine; Gibco BRL, no. 21090-022), supplemented with 10 % fetal calf serum (FCS), penicillin 100U/streptomycin 100 µg/ml (Biochrom, no. A2213), L-glutamine 4 mmol/l (Gibco BRL, no. 25030-024), sodium pyruvate 1 mmol/l (Biochrom, no. L0473) and 1x non-essential amino acids (Biochrom, no. K0293) at a temperature of 37 °C and in an atmosphere of 5 % carbon dioxide.
as §2
After incubation with test progestins for 24 hours, the medium is removed and cells are lysed with 20 µl of lysis buffer (Luciferase Assay System E 153A; Promega) and under agitation of the plate for 10 min. After addition of 30 µl of luciferase reagent (Luciferase Assay System E 151A + 152A; Promega) within 30 seconds per plate, the activity of the luciferase reporter gene product is determined in the cell lysates by means of a Microlite ML 3000 microtiter plate luminometer (Dynatech) in cycle mode.
as §3, §4, §5, §6

For assay [3], the system named is Pregnant rats (Wistar Han, SPF). Kind of assay: Pregnancy maintenance test in rat. Format: in vivo. Conditions: ovariectomized pregnant rats, with estrone. The text has this:
In rats, castration induces termination of pregnancy. Progestins (combined with estrogens) are capable of maintaining pregnancy in castrated animals. However, the degree of pregnancy maintenance in castrated rats is optimal only in a defined dose range. Therefore, higher as well as lower doses generally induce a weaker effect. Accompanying treatment with defined doses of estrone (E1) increases the pregnancy maintaining effect of progestins.
Pregnant rats (Wistar Han, SPF) of 190 to 220 g (5 to 8 animals per dose) are ovariectomized on day 8 of pregnancy, 2 hours after the first substance administration. From day 8 to day 14, rats are daily treated with test progestin in combination with a standard dose of E1. One day later, animals are killed with carbon dioxide. For each animal, the number of living and dead fetuses is determined according to the heartbeat of the embryos. In case of empty uteri, the number of implantation sites is determined by means of staining with a 10 % ammonium sulfide solution.
S.c. (subcutaneous) application: The test progestin is dissolved in benzyl benzoate/castor oil (1+4 v/v), and the daily dose is administered in a volume of 1 ml/kg body weight.
P.o. (peroral) application: The test progestin is suspended in a carrier liquid (85 mg Myrj^R in 100 ml 0.9 % w/v NaCl solution), and the daily dose is administered in a volume of 2 ml/kg body weight.
I.p. (intraperitoneal) application: The test progestin is dissolved in propylene glycol and charged in miniature osmotic pumps (type 2001, 1.0 µl/h, 7 days), which are placed in the abdominal cavity of the rat.
The standard dose of estrone is 0.005 mg/kg body weight s.c. and is dissolved in benzyl benzoate/castor oil ([…]).
It is determined the pregnancy maintenance per animal [%], the pregnancy maintenance per dose (median of single values) and the ED50 (dose, at which pregnancy is maintained in 50 % of the animals; 100 % corresponds to control animals that are not ovariectomized).

Assay [4] has as its system female rats. Kind of assay: Ovulation inhibition test in rat. Conditions: rat (Table 1-b); read-out: Ovulation Inhibition (rat) [ED50]. Format: in vivo. On the procedure: Before the treatment is started, two […] cycles of female rats (weight: 190 to 210 g) were monitored. Only animals having a regular 4 day-cycle are used for the subsequent test. Starting in the metoestrus, the test compound is administered for 4 days (day 1 to 4) and the cycle is controlled thereafter.
For subcutaneous application, the test compounds are dissolved in benzyl benzoate/castor oil (1+9 v/v) and the daily dose is administered in a volume of 1 ml/kg body weight.
For peroral application, the test compounds are suspended in a carrier liquid (85 mg Myrj^R in 100 ml 0.9 % w/v NaCl solution) and the daily dose is administered in a volume of 2 ml/kg body weight.
On day 4, after the application of the test compound, those animals having estrus or metoestrus are ovariectomized under ether anesthesia on one side. Preparations of the tubes are prepared and they are investigated for ova by means of microscope. On day 5 all animals (intact and partly ovariectomized) are killed with carbon dioxide, the tubes are preserved and analyzed in the same way. It is then determined, as a percentage, in how many animals ovulation was inhibited.

For assay [5], the system named is rat mammary epithelium. Kind of assay: Bioassay on proliferating/differentiating effects in the rat mammary epithelium (whole mount staining). Format: in vivo. The following applies: terminal end buds. As for the experimental part:
The object of this test is to evaluate the effect of progestins on the development of the mammary gland, in particular on the formation of terminal end buds in the mammary gland in estrogen primed rats.
Premature female rats (Wistar Han, SPF) are ovariectomized at the age of 21 days, 4 to 6 days before treatment start. The animals are treated for 6 days with standard estrogen (estrone, 70 µg/kg) and the test progestin (application volume: 0.1 ml/50g body weight; vehicle: benzylbenzoate/castor oil (1+4 v/v); subcutaneous). Control groups are e.g.: vehicle, estrone without progestin, estradiol together with a known progestin, e.g. R5020 (promegestone). After the 6-day treatment the animals are killed with carbon dioxide.
For the whole mount staining, animals are shaved in the left abdominal inguinal mammary region, which is cut from the body together with the skin. For the histological/immunohistochemical analyses the right abdominal inguinal mammary gland is cut from the body together with the connective tissue adhered thereto and fixed in 3.7 % formalin in PBS (phosphate buffer saline; without Ca^2+/Mg^2+).
The preparations are fixed over night in alcohol-formalin according to the method of Tellyesniczky (see below). Then the mammary gland tissue and subcutis adhered thereto are stripped from the cutis and the preparations are again fixed over night. The further steps are as follows: ethanol 70 %: 1.5 hours; acetone: 3 × 1.5 hours; acetone: over night; isopropanol: 1.5 hours; ethanol 96 %: 2 hours; hematoxylin-iron: 3 hours; VE water: first rinse the preparations and then 2 × 0.5 hours; ethanol 70 %: over night; ethanol 80 %: 1.5 hours; ethanol 96 %: 1.5 hours; isopropanol: 1.5 hours. The preparations are then moved to petri dishes and left in toluene for approximately 1 hour, i.e. until they have stopped to swim up. Then the preparations are treated with cedarwood oil (Merck, no. 1.06965). The incubation times above are minimum times and can be extended. In particular, incubation in ethanol 70 % after fixation can be extended to at least 2.5 weeks.
Preparation of the solutions necessary for the whole mount staining: • a) Alcohol-formalin according to Tellyesniczky: formaldehyde 37%: 81.8 ml, ethanol 70 %: 1636 ml, glacial acetic acid (to be added shortly before use): 81.8 ml (total: 1800 ml). • b) Hematoxylin mother solution: Hematoxylin (Merck, no. 1.15938): 10 g, ethanol 96 %: 100 ml. The solution must stand for 48 hours at 37 °C before use. It can be kept in a dark place for almost unlimited time. • c) Hematoxylin-iron solution for use: hematoxylin mother solution (filtered): 15.2 ml, ethanol 96 %: 1374 ml, FeCl3 x 6 H2O (s. 4): 91.1 ml, 1 mol/l HCl: 220 ml (total: 1700 ml); adjustment to a pH of 1.25 with 2mol/l NaOH. • d) FeCl3 x 6 H2O solution: FeCl3 x 6 H2O (Merck, no. 1.03943): 1.07 g, VE water: 90.2 ml, HCl: 37 %: 0.92 ml (total: 91.1 ml).
By means of a 40-fold magnification, the terminal end buds near the nipple in direction of the tail are counted. The area to be investigated should be about 1.8 mm^2. For well-differentiated preparations this area may be reduced, with at least 250 buds to be counted. After counting, the number of end buds per 1 mm^2 is calculated. […]

The structures appear in SMILES notation.

In assay [1], `Cc1noc(=O)c2ccc(NC(=O)C(O)(CC3(c4cccc(C(F)(F)F)c4F)CC3)C(F)(F)F)cc12` (single isomer, unassigned; (+)) [((+)-2), (+)-6-{2-hydroxy-3-[1-(2-fluoro-3-trifluoromethylphenyl)-cyclopropyl]-2-trifluoromethyl-propionylamino}-4-methyl-2,3-benzoxazin-1-one] registered a PR-A agonism efficacy of 99.2%. Also, in assay [2], the PR-B agonism efficacy is reported as 67.5%.

Consider `Cc1noc(=O)c2ccc(NC(=O)C(C)(O)CC3(c4cccc(C(F)(F)F)c4)CC3)cc12` (single isomer, unassigned; (+)) [((+)-3), (+)-6-{2-hydroxy-3-[1-(3-trifluoromethylphenyl)-cyclopropyl]-2-methyl-propionylamino}-4-methyl-2,3-benzoxazin-1-one], for which the PR-A agonism efficacy in assay [1] turned out to be 94%. In addition, the PR-B agonism efficacy in assay [2] amounted to 71%.

As to `O=C1OCc2cc(NC(=O)C(O)(CC3(c4cccc(C(F)(F)F)c4F)CC3)C(F)(F)F)ccc21` (single isomer, unassigned; (+)) [((+)-4), (+)-5-{2-hydroxy-3-[1-(2-fluoro-3-trifluoromethylphenyl)-cyclopropyl]-2-trifluoromethyl-propionylamino}-phthalide], in assay [1], the PR-A agonism efficacy was 100%. The compound also gave a PR-B agonism efficacy in assay [2] of 82%.

Take `CCC(=O)[C@@]1(C)CC[C@H]2[C@@H]3CCC4=CC(=O)CCC4=C3CC[C@@]21C` [R5020, promegestone, reference compound]: in assay [3], the “Maintenance of pregnancy (rat) [ED50]” value worked out at 0.1 mg/kg. Besides, in assay [4], the ED50 worked out at 0.06 mg/kg. Besides, the “Mammary gland, whole mount staining (rat) [equi-efficient dose]” value turned out to be 0.1 mg/kg in assay [5] (dose pair with 0.1 mg/kg R5020, independent test) and 0.3 mg/kg in assay [5] (dose pair with 0.3 mg/kg R5020, independent tests).

The ED50 is the dose at which the effect has come halfway, by size or by number of responders.

The record behind these values is patent publication EP1344776A1, “5- 2-hydroxy-3-[1-(3-trifluoromethylphenyl)-cyclopropyl]-propionylamino -phtalide and 6- 2-hydroxy-3-[1-(3-trifluoromethylphenyl)-cyclopropyl]-propionylamino -4-methyl-2,3-benzoxazin-1-one derivatives with progesterone receptor modulating activity for use in fertility control, hormone replacement …” (Schering Aktiengesellschaft, priority 2002, dated 2003).
